# Results: patent publication US11541050B2, “Pyrimidine derivatives for the treatment of viral infections” (JANSSEN SCIENCES IRELAND UC, priority 2011, dated 2023)
# Experiments:
# Format in all cases: cell-based
# Design in all cases: unit not given here
# [1] = target: T1, human TLR7 (wild type sequence) (Homo sapiens, UniProt Q9NYK1); experiment: TLR7 cellular NFκB-luc reporter assay, wild type TLR7; conditions: lowest effective concentration, wild type TLR7
# T1 construct: expressed in transfected cells; host or cells: HEK293
# T1 sequence (Q9NYK1 27-1049): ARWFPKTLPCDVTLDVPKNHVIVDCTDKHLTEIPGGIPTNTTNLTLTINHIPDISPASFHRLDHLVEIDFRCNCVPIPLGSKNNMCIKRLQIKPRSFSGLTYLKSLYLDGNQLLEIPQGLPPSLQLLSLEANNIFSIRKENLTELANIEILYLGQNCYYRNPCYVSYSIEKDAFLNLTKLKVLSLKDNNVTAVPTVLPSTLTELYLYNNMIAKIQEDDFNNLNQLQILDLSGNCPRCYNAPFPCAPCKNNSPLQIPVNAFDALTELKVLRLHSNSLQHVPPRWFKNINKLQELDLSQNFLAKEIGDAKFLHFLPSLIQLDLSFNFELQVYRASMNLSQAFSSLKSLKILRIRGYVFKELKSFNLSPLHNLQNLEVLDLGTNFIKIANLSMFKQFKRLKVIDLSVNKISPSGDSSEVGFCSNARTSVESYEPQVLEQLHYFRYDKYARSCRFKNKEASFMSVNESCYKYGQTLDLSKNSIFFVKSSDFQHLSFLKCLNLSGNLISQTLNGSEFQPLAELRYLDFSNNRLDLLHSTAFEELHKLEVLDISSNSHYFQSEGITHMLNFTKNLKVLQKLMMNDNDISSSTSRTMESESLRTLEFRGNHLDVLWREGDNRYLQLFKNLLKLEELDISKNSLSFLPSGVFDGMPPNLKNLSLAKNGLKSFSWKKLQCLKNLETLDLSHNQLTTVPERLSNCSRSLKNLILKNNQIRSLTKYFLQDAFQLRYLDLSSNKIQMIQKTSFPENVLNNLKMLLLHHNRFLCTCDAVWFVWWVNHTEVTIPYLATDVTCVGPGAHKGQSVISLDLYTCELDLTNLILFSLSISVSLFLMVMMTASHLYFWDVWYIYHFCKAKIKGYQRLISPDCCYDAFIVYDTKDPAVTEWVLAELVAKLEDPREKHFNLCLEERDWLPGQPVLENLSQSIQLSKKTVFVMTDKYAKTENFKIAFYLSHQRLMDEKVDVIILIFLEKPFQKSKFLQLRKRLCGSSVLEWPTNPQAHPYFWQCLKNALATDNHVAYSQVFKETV
# Procedure, shortened: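 Luciferase signal read after 6 h compound incubation at 37 °C in HEK293 cells carrying transiently transfected TLR7 or TLR8 (wild type or LRR2-deletion) and NFκB-luc. Values are lowest effective concentrations from quadruplicate dose-response curves, effect ≥2-fold above assay SD.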
# [2] = test system: human TLR8 mutant sequence comprising a deletion in the second leucine-rich repeat; experiment: TLR8 cellular NFκB-luc reporter assay, mutant TLR8 with deletion in the second leucine-rich repeat; conditions: lowest effective concentration
# Protocol: (§1) The ability of compounds to activate human TLR7 and/or TLR8 was assessed in a cellular reporter assay using HEK293 cells transiently transfected with a TLR7 or TLR8 expression vector and NFκB-luc reporter construct. In one instance the TLR expression construct expresses the respective wild type sequence or a mutant sequence comprising a deletion in the second leucine-rich repeat of the TLR.
# (§2) Briefly, HEK293 cells were grown in culture medium (DMEM supplemented with 10% FCS and 2 mM Glutamine). For transfection of cells in 10 cm dishes, cells were detached with Trypsin-EDTA, transfected with a mix of CMV-TLR7 or TLR8 plasmid (750 ng), NFκB-luc plasmid (375 ng) and a transfection reagent and incubated for 48 hours at 37° C. in a humidified 5% CO2 atmosphere. […] Thirty microliters of cells were then dispensed into each well in 384-well plates, where 10 μL of compound in 4% DMSO was already present. Following 6 hours incubation at 37° C., 5% CO2, the luciferase activity was determined by adding 15 μl of Steady Lite Plus substrate (Perkin Elmer) to each well and readout performed on a ViewLux ultraHTS microplate imager (Perkin Elmer). Dose response curves were generated from measurements performed in quadruplicates.
# [3] = test system: human TLR7 mutant sequence comprising a deletion in the second leucine-rich repeat; experiment: TLR7 cellular NFκB-luc reporter assay, mutant TLR7 with deletion in the second leucine-rich repeat; conditions: lowest effective concentration
# Protocol: as §1, §2
SMILES,TLR7-wt_LEC [1],TLR8-dIRR2_LEC [2],TLR7-dIRR2_LEC [3]
CCCC[C@@H](CCO)Nc1nc(N)ncc1OCc1cncn1[C@@H](C)c1ccccc1 [Compound 247],12.390,3.200,8.240
CCCC[C@@H](CCO)Nc1nc(N)ncc1OCc1cccc(C)n1 [Compound 295],0.047,0.034,0.430
CCC[C@@H](C)Nc1nc(N)ncc1OCc1nccc2ccccc12 [Compound 219],0.125,0.029,1.640
CCCC[C@@H](CCO)Nc1nc(N)ncc1OCc1nccc(OC)c1OC [Compound 245],0.040,0.011,0.507
CCCCNc1nc(N)ncc1OCCCC(=O)OC(C)C [Compound 221],0.654,0.496,0.859
CCC[C@@H](CCO)Nc1nc(N)ncc1OCc1cccnc1 [Compound 271],0.261,0.088,0.511
CCC[C@@H](CO)Nc1nc(N)ncc1OCc1cccc(C(=O)O)n1 [Compound 260],4.850,>8.14,2.830
CCCC[C@@H](CCOC(=O)C(C)C)Nc1nc(N)ncc1OC [Compound 250],0.724,0.580,3.250
CCCCNc1nc(N)ncc1OCCN(Cc1ccccc1)C(=O)OCC [Compound 230],0.593,0.138,3.470
CCC[C@@H](CCO)Nc1cc(O[C@@H]2CCc3c(Cl)ccnc32)nc(N)n1 [Compound 283],17.180,4.350,8.320
CCCCNc1nc(N)ncc1OCCCC(=O)OC [Compound 220],1.940,1.720,1.450
CCC[C@@H](CCO)Nc1nc(N)ncc1OCCOC(C)C [Compound 301],1.170,0.534,2.640
CCCCNc1nc(N)ncc1OCc1ncccc1F [Compound 213],0.225,0.032,0.207
CCCC[C@@H](CO)Nc1nc(N)ncc1OCc1cccnn1 [Compound 278],0.880,0.136,0.270
CCCC[C@@H](CCO)Nc1nc(N)ncc1OCc1cc2ccccc2cn1 [Compound 223],0.100,0.033,1.400
CCC[C@@H](CCO)Nc1nc(N)ncc1OCc1cc2ccccc2cn1 [Compound 249],0.039,0.036,0.172
